Assay results: patent publication US6316194A, “Methods and kits for discovery of RNA-binding antimicrobials” (Ribotargets, priority 1999, dated 2001)

Test system: DABCYL-A site RNA (25 nucleotide model of the 16S rRNA A site, SEQ ID No. 1)
Experiment: Competitive inhibition of paramomycin-TAMRA binding to DABCYL-A site RNA by unlabelled antibiotic (FRET, 96-well plate reader)
Conditions: 25 nM paramomycin-TAMRA
Experimental: Binding of paramomycin-TAMRA to A site RNA was measured in a fluorescent plate reader. Measurements were made in a 96-well plate reader (Wallac victor) with a fixed wavelength of 544 nm and emission at 590 nm. I0 was determined by an initial measurement of a 95 μL solution of 25 nM paramomycin-TAMRA in the presence of 50 mM Tris-HCl pH7.5, 80 mM KCl, 0.1% DMSO 0.00007% Triton X-100 and 0.5 ug/mL BSA presence of 10 μM Neomycin. I (the final measurement) was then measured following the addition of 5 μL of a 20×DABCYL-A site RNA stock solution (corresponding to the amounts shown in the figure).
Binding of paramomycin-TAMRA to A site RNA was measured in a fluorescent plate reader. Measurements were made in a 96-well plate reader (Wallac victor) with a fixed wavelength of 544 nm and emission at 590 nm. I0 was determined by an initial measurement of a 95 μL solution of 25 nM paramomycin-TAMRA in the presence of 50 mM Tris-HCl pH7.5, 80 mM KCl, 0.1% DMSO 0.00007% Triton X-100 and 0.5 ug/mL BSA presence of 15 μM Neomycin. I (the final measurement) was then measured following the addition of 5 μL of a 20×DABCYL-A site RNA stock solution (corresponding to the amounts shown in FIG. 9). […]

Compound | Inhibition of paramomycin-TAMRA to A site binding (10 μM Neomycin) | Inhibition of paramomycin-TAMRA to A site binding (15 μM Paramomycin (heading))
Neomycin | a reduction in fluorescence in the presence of the neomycin competitor was observed | 
NC[C@@H]1O[C@H](O[C@H]2[C@@H](O)[C@H](O[C@@H]3[C@@H](O)[C@H](N)C[C@H](N)[C@H]3O[C@H]3O[C@H](CO)[C@@H](O)[C@H](O)[C@H]3N)O[C@@H]2CO)[C@H](N)[C@@H](O)[C@@H]1O [paramomycin] |  | competitive inhibitor
